Biological target: T1, rShGST (recombinant Schistoma japonicum GST) (Schistosoma japonicum, UniProt P08515)
T1 construct: GST expressed from the empty vector pGEX-6P-1 (vector-encoded C-terminal linker), E. coli BL21(DE3), Glutathione Sepharose
Assay: GST activity with CDNB, absorbance at […] nm
Format: biochemical
Settings: 100 µM inhibitor; 1 mM CDNB, 1 mM GSH, 0.1 M phosphate pH 6.5

T1 sequence (P08515 2-218): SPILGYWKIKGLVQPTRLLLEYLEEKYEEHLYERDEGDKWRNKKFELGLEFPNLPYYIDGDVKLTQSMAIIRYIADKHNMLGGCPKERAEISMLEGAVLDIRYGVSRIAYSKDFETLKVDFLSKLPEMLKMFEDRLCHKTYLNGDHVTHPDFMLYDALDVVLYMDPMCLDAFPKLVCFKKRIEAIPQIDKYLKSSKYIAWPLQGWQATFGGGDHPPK

**Q.** `C=C(CC)C(=O)c1ccc(OCC(=O)O)c(Cl)c1Cl` [ethacrynic acid] was tested. Which “GST activity, % of control at 100 μM” value did it give?
**A.** Ethacrynic acid strongly inhibited the GST activity of recombinant Schistoma japonicum GST (rShGST)
